Results as given in patent publication US20260116910A1, “POLYCYCLIC COMPOUNDS AND METHODS THEREOF” (HEPAITECH (BEIJING) BIOPHARMA TECHNOLOGY CO., LTD., priority 2021, published 2026).
Several values for one entry are separate records, joined by “and”; a condition that tells them apart may be missing. Equal entries are not always repeated. Where two headings read alike, the source gives them in different places.

How the values were obtained:
human FXR (NR1H4) = target: T1, human FXR (NR1H4) (Homo sapiens, UniProt Q96RI1); assay: Human FXR (NR1H4) agonist assessment, FXRE-NanoLuc reporter in HEK293T cells; type: cell-based
T1 sequence (Q96RI1 1-476 isoform Q96RI1-1): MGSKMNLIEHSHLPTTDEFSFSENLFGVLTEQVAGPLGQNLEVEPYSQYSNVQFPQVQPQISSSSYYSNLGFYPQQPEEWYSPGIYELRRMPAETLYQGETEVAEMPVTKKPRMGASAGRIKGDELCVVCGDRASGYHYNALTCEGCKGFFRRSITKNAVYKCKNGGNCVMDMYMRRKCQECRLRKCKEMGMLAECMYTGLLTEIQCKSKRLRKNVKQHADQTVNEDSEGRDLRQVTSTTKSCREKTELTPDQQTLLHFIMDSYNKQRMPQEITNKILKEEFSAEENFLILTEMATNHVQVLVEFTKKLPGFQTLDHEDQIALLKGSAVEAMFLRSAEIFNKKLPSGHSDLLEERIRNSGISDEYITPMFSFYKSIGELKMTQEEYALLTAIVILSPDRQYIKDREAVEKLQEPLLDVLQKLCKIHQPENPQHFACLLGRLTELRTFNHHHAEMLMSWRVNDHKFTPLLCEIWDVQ
Procedure, shortened: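 Read-out was NanoLuc luminescence in culture medium, measured 5 min after adding coelenterazine. Cells were HEK293T stably carrying human FXR and an FXRE reporter, exposed to compound for 24 hr at 37 °C. Vehicle was 0.01% DMSO. EC50 was obtained from sigmoid fits of gradient dilutions.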

MRGPRX4 = MRGPRX4 (Homo sapiens, UniProt Q96LA9); assay: MRGPRX4 activation, Fluo-8 Ca2+ FLIPR assay in HEK293T cells stably expressing MRGPRX4; type: cell-based; parameters: key to MRGPRX4 activation, Average / MRGPRX4 activation, Ave.: fluorescence change dF/F0
Procedure, shortened: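 Response measured as dF/F0: 30 s baseline, then 150 s after compound addition on FLIPR Tetra, in HHBS after 40-60 min room-temperature loading with 2 μM Fluo-8 AM.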

[1] = FXR activation, HEK293T FXRE-NanoLuc reporter, 24 hr
[2] = FXR activation, HEK293T FXRE-NanoLuc reporter, 24 hr, read-out: EC50
[3] = MRGPRX4 activation, Ca2+ fluorescence, no activation in tested range reported as III, read-out: Activity (EC50 μM)

MRGPRX4, sequence (Q96LA9 whole entry): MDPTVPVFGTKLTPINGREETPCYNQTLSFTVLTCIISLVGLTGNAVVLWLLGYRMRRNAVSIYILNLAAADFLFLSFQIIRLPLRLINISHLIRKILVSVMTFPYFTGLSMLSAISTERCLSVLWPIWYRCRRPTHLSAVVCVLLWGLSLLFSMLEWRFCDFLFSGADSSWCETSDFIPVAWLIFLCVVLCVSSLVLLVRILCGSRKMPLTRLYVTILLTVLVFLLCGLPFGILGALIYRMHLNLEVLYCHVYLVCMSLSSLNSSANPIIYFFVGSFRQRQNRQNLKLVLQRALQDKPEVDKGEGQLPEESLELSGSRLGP

Structure (SMILES)	Efficacy (maximum measured induction of NanoLuc, normalized to CDCA set as 100%) (human FXR (NR1H4); [1])	EC50 (human FXR (NR1H4); [2]) [µM]	MRGPRX4 activation, fluorescence change (dF/F0), Average (MRGPRX4; Conc. (Log[M]) −4.5)	EC50 (MRGPRX4; [3]) [µM]	MRGPRX4 activation, fluorescence change (dF/F0), Average (MRGPRX4; Conc. (Log[M]) −4)	MRGPRX4 activation, fluorescence change (dF/F0), Average (MRGPRX4; Conc. (Log[M]) −5)	MRGPRX4 activation, fluorescence change (dF/F0), Average (MRGPRX4; Conc. (Log[M]) −5.5)	MRGPRX4 activation, fluorescence change (dF/F0), Average (MRGPRX4; Conc. (Log[M]) −6)	MRGPRX4 activation, fluorescence change (dF/F0), Average (MRGPRX4; Conc. (Log[M]) −7)	MRGPRX4 activation, fluorescence change (dF/F0), Average (MRGPRX4; Conc. (Log[M]) −8)	MRGPRX4 activation, fluorescence change (dF/F0), Average (MRGPRX4; Conc. (Log[M]) −9)	also measured
CC[C@H]1[C@@H](O)[C@@H]2[C@H](CC[C@]3(C)[C@@H]([C@H](C)CCNC(=O)NS(=O)(=O)c4ccc(C(C)(CO)CO)cc4)CC[C@@H]23)[C@@]2(C)CCCC[C@@H]12 [5-22]	C (100%<efficacy <=300%)	< 1	0.018	> 100	–	–	–	–	–	–	–	MRGPRX4 activation, fluorescence change (dF/F0), Average (MRGPRX4; Conc. (Log[M]) −4.0): 0.020; MRGPRX4 activation, fluorescence change (dF/F0), Average (MRGPRX4; Conc. (Log[M]) −5.0): 0.013; MRGPRX4 activation, fluorescence change (dF/F0), Average (MRGPRX4; Conc. (Log[M]) −5.4): 0.013; MRGPRX4 activation, fluorescence change (dF/F0), Average (MRGPRX4; Conc. (Log[M]) −5.9): 0.011; MRGPRX4 activation, fluorescence change (dF/F0), Average (MRGPRX4; Conc. (Log[M]) −6.4): 0.016; MRGPRX4 activation, fluorescence change (dF/F0), Average (MRGPRX4; Conc. (Log[M]) −6.9): 0.016; MRGPRX4 activation, fluorescence change (dF/F0), Average (MRGPRX4; Conc. (Log[M]) −7.3): 0.018; MRGPRX4 activation, fluorescence change (dF/F0), Average (MRGPRX4; Conc. (Log[M]) −7.8): 0.014; MRGPRX4 activation, fluorescence change (dF/F0), Average (MRGPRX4; Conc. (Log[M]) −8.3): 0.016
CC[C@H]1[C@@H](O)[C@@H]2[C@H](CC[C@]3(C)[C@@H]([C@H](C)CCC(=O)NS(C)(=O)=O)CC[C@@H]23)[C@@]2(C)CC[C@H](F)C[C@@H]12 [9-7]	A (efficacy >400%)	1 to 10	0.022 and 0.037	> 100	–	–	–	–	–	–	–	–
CC[C@H]1[C@@H](OC(=O)c2cccc(I)c2)[C@@H]2[C@H](CC[C@]3(C)C([C@H](C)CCC(=O)OC)=CC[C@@H]23)[C@@]2(C)CCCC[C@@H]12 [3-1]	C (100%<efficacy <=300%)	1 to 10	0.004	> 100	0.008	−0.027	−0.004	−0.017	0.005	0.001	−0.001	–
C[C@H](CCCC(=O)O)[C@H]1CC[C@H]2[C@@H]3CC[C@@H]4C[C@H](O)CC[C@]4(C)[C@H]3C[C@H](O)[C@]12C [RC-2]	B (300%<efficacy <=400%)	1 to 10	0.159	< 50	0.242	0.126	0.034	0.017	−0.012	−0.010	−0.018	–
[2H]C1CC[C@@]2(C)[C@@H](C1)[C@@H](CC)[C@@H](O)[C@@H]1[C@@H]2CC[C@]2(C)[C@@H]([C@H](C)CCNC(=O)NS(=O)(=O)c3ccc(C(C)(C)CF)cc3)CC[C@@H]12 (stereo partly drawn) [13-2]	A (efficacy >400%)	< 1	–	> 100	–	–	–	–	–	–	–	MRGPRX4 activation, Ave. (MRGPRX4; E3-7, Conc. (Log[M]) −4): −0.054; MRGPRX4 activation, Ave. (MRGPRX4; E3-7, Conc. (Log[M]) −4.5): −0.054; MRGPRX4 activation, Ave. (MRGPRX4; E3-7, Conc. (Log[M]) −5): −0.027; MRGPRX4 activation, Ave. (MRGPRX4; E3-7, Conc. (Log[M]) −5.5): −0.027; MRGPRX4 activation, Ave. (MRGPRX4; E3-7, Conc. (Log[M]) −6): −0.027; MRGPRX4 activation, Ave. (MRGPRX4; E3-7, Conc. (Log[M]) −7): 0.000
C[C@H](CC(=O)O)[C@H]1CC[C@H]2[C@@H]3CC[C@@H]4C[C@H](O)CC[C@]4(C)[C@H]3C[C@H](O)[C@]12C [RC-1]	B (300%<efficacy <=400%)	1 to 10	0.080	< 50	0.329	−0.029	−0.019	−0.015	−0.010	−0.003	−0.005	–
CC[C@H]1[C@@H](O)[C@@H]2[C@H](CC[C@]3(C)[C@@H]([C@H](C)CCNC(=O)C(=O)NS(=O)(=O)c4cccs4)CC[C@@H]23)[C@@]2(C)CCCC[C@@H]12 [8-2]	–	< 1	–	> 100	–	–	–	–	–	–	–	Efficacy (maximum measured induction of NanoLuc, normalized to CDCA set as 100%) (human FXR (NR1H4)): B (key: A: efficacy >400%; B: 300%<efficacy <=400%; C: 100%<efficacy <=300%; D: efficacy <=100%); MRGPRX4 activation, Average (MRGPRX4; E3-9, Conc. (Log[M]) −4.0): 0.020; MRGPRX4 activation, Average (MRGPRX4; E3-9, Conc. (Log[M]) −4.5): 0.018; MRGPRX4 activation, Average (MRGPRX4; E3-9, Conc. (Log[M]) −5.0): 0.018; MRGPRX4 activation, Average (MRGPRX4; E3-9, Conc. (Log[M]) −5.4): 0.016; MRGPRX4 activation, Average (MRGPRX4; E3-9, Conc. (Log[M]) −5.9): 0.018; MRGPRX4 activation, Average (MRGPRX4; E3-9, Conc. (Log[M]) −6.4): 0.011; MRGPRX4 activation, Average (MRGPRX4; E3-9, Conc. (Log[M]) −6.9): 0.018; MRGPRX4 activation, Average (MRGPRX4; E3-9, Conc. (Log[M]) −7.3): 0.008; MRGPRX4 activation, Average (MRGPRX4; E3-9, Conc. (Log[M]) −7.8): 0.011; MRGPRX4 activation, Average (MRGPRX4; E3-9, Conc. (Log[M]) −8.3): 0.006
[2H]C1([2H])CC[C@@]2(C)[C@@H](C1)[C@@H](CC)[C@@H](O)[C@@H]1[C@@H]2CC[C@]2(C)[C@@H]([C@H](C)CCN=C=S)CC[C@@H]12 [14-2]	C (100%<efficacy <=300%)	–	–	–	–	–	–	–	–	–	–	EC50 (human FXR (NR1H4)): > 10 µM; EC50 (MRGPRX4): > 100 µM; MRGPRX4 activation, Average (MRGPRX4; E3-9, Conc. (Log[M]) −4.0): 0.090; MRGPRX4 activation, Average (MRGPRX4; E3-9, Conc. (Log[M]) −4.5): 0.027; MRGPRX4 activation, Average (MRGPRX4; E3-9, Conc. (Log[M]) −5.0): 0.027; MRGPRX4 activation, Average (MRGPRX4; E3-9, Conc. (Log[M]) −5.4): 0.030; MRGPRX4 activation, Average (MRGPRX4; E3-9, Conc. (Log[M]) −5.9): 0.020; MRGPRX4 activation, Average (MRGPRX4; E3-9, Conc. (Log[M]) −6.4): 0.013; MRGPRX4 activation, Average (MRGPRX4; E3-9, Conc. (Log[M]) −6.9): 0.013; MRGPRX4 activation, Average (MRGPRX4; E3-9, Conc. (Log[M]) −7.3): 0.013; MRGPRX4 activation, Average (MRGPRX4; E3-9, Conc. (Log[M]) −7.8): 0.010; MRGPRX4 activation, Average (MRGPRX4; E3-9, Conc. (Log[M]) −8.3): 0.010
CC[C@H]1[C@@H](O)[C@@H]2[C@H](CC[C@]3(C)[C@@H]([C@H](C)COC(=O)NS(=O)(=O)c4ccc5c(c4)CCC(C)(C)O5)CC[C@@H]23)[C@@]2(C)CCCC[C@@H]12 [18-2]	A (efficacy >400%)	< 1	–	> 100	–	–	–	–	–	–	–	Activation (%) (MRGPRX4; second E3-8-1, 4.6 nM, n = 1): 2.86%; Activation (%) (MRGPRX4; second E3-8-1, 4.6 nM, n = 2): 3.17%; Activation (%) (MRGPRX4; second E3-8-1, 14 nM, n = 1): 3.79%; Activation (%) (MRGPRX4; second E3-8-1, 14 nM, n = 2): 3.79%; Activation (%) (MRGPRX4; second E3-8-1, 41 nM, n = 1): 3.17%; Activation (%) (MRGPRX4; second E3-8-1, 41 nM, n = 2): 1.93%; Activation (%) (MRGPRX4; second E3-8-1, 123 nM, n = 1): 3.48%; Activation (%) (MRGPRX4; second E3-8-1, 123 nM, n = 2): 2.86%; Activation (%) (MRGPRX4; second E3-8-1, 370 nM, n = 1): 3.48%; Activation (%) (MRGPRX4; second E3-8-1, 370 nM, n = 2): 3.48%; Activation (%) (MRGPRX4; second E3-8-1, 1111 nM, n = 1): 2.24%; Activation (%) (MRGPRX4; second E3-8-1, 1111 nM, n = 2): 2.55%; Activation (%) (MRGPRX4; second E3-8-1, 3333 nM, n = 1): 3.17%; Activation (%) (MRGPRX4; second E3-8-1, 3333 nM, n = 2): 1.93%; Activation (%) (MRGPRX4; second E3-8-1, 10000 nM, n = 1): 3.48%; Activation (%) (MRGPRX4; second E3-8-1, 10000 nM, n = 2): 2.24%; Activation (%) (MRGPRX4; second E3-8-1, 30000 nM, n = 1): 4.10%; Activation (%) (MRGPRX4; second E3-8-1, 30000 nM, n = 2): 3.48%
CC[C@H]1[C@@H](O)[C@@H]2[C@H](CC[C@]3(C)[C@@H]([C@H](C)CC(=O)O)CC[C@@H]23)[C@@]2(C)CCCC[C@@H]12 [compound 26]	C (100%<efficacy <=300%)	> 10	−0.059	> 100	−0.070	−0.090	−0.062	−0.067	−0.072	−0.090	−0.084	–
